Test system: human K562 xenograft
Assay: Anti-tumor effect in human K562 xenograft model
Type: in vivo
Conditions: for mortality: study period of 30 days
Protocol: These xenografts representative of NSCLC and CML respectively are considered to be highly aggressive and resistant to chemotherapy treatment. Therefore, any new chemotherapy agent against these cancers is very much sought. For the experiment, a total of 12 mice bearing A549 or K562 tumors of volume in the range of ˜50 mm^3 were divided into two groups (I & II), each group comprising of six mice. […] The group II was administered DSePA daily dissolved in sterile saline through oral route at a dosage of 1 mg/Kg body weight. The tumor volume and body weight of mice from each group were monitored daily for a total period of 30 days from the day of start. The animals were also checked for mortality if any throughout the study period. The experiment in A549 tumor was repeated three times (n=18 for each group) and the experiment in K562 tumor was repeated two times (n=12 for each group). […] This is the first study to show the anticancer activity of DSePA per se using xenograft model of human lung cancer (A549) and human leukemia (K562) cells in mice. Discovery of the application of the anticancer activity of DSePA is a novel invention in context of its probable usage in treatment for lung and leukemia cancer. More specifically the invention proposes a treatment regime and route of administering DSePA to inhibit the growth of human NSCLC (A549) and CML (K562).
For the optimization of the oral dosage of DSePA, a total of 24 mice bearing A549 or K562 xenograft of volume in the range of ˜50 mm^3 were divided into four groups (I-IV), each group comprising of six mice. […] The groups II, III and IV were administered DSePA dissolved in sterile saline through oral route at the dosage of 1, 2.5 and 5 mg/kg body weight respectively. The administration of DSePA was performed daily for 4 weeks. The tumor volume and body weight of mice from each group were monitored daily for a total period of 30 days from the day of start. The animals were also checked for mortality if any throughout the study period.
Animal maintenance—All animal studies were approved by the Institutional Animal Ethics Committee. Animals were housed under standard conditions (20±2° C., 65-70% humidity, 12 h/12 h day/night cycle, balanced laboratory diet and tap water ad libitum.
Xenograft tumor model-A549 and K562 tumor models were developed by Anticancer Drug Screening Facility of Advanced Centre for Treatment, Research and Education in Cancer (ACTREC), India. Briefly, Male/female NOD-SCID aged 6-7 weeks were housed in the laboratory animal facility of ACTREC. Donor mice carrying K562 or A549 xenografts were developed by injecting 2×10^6 cells in 100 μl of DMEM/RPMI, subcutaneously in their right flank. When tumors attained the size of approximately 2000 mm^3, the animals were sacrificed. Tumors were obtained and further cut into 2-3 mm fragments and implanted subcutaneously in the right flank of 6-7 weeks old recipient SCID mice. Tumors were allowed to grow to a size of approximately 50 mm^3 following which animals were divided into groups of six animals each for evaluation. A fresh DSePA solution was prepared by dissolution in sterile saline before each administration by intraperitoneal/oral route. The tumor efficacy of DSePA was determined by monitoring parameters like tumor volume and T/C. Tumors were assumed spherical and volume was calculated using following equations (1 & 2): […]
Where d1 (mm) and d2 (mm) are diameters measured in two perpendicular planes. T/C is defined as the ratio of the mean tumor volume of DSePA treated groups with the mean tumor volume of control group on the day of observation.

[1] = 1 mg/kg body weight daily oral, day 1
[2] = 1 mg/kg body weight daily oral, day 5
[3] = 1 mg/kg body weight daily oral, day 9
[4] = 1 mg/kg body weight daily oral, day 12
[5] = 1 mg/kg body weight daily oral, day 15
[6] = 1 mg/kg body weight daily oral, day 18
[7] = 1 mg/kg body weight daily oral, day 21
[8] = 1 mg/kg body weight daily oral, day 24
[9] = 1 mg/kg body weight daily oral, day 27
[10] = 1 mg/kg body weight daily oral, day 32
[11] = 2.5 mg/kg body weight daily oral, day 1
[12] = 2.5 mg/kg body weight daily oral, day 5
[13] = 2.5 mg/kg body weight daily oral, day 9
[14] = 2.5 mg/kg body weight daily oral, day 12
[15] = 2.5 mg/kg body weight daily oral, day 15
[16] = 2.5 mg/kg body weight daily oral, day 18
[17] = 2.5 mg/kg body weight daily oral, day 21
[18] = 2.5 mg/kg body weight daily oral, day 24
[19] = 2.5 mg/kg body weight daily oral, day 27
[20] = 2.5 mg/kg body weight daily oral, day 32
[21] = 5 mg/kg body weight daily oral, day 1
[22] = 5 mg/kg body weight daily oral, day 5
[23] = 5 mg/kg body weight daily oral, day 9
[24] = 5 mg/kg body weight daily oral, day 12
[25] = 5 mg/kg body weight daily oral, day 15
[26] = 5 mg/kg body weight daily oral, day 18
[27] = 5 mg/kg body weight daily oral, day 21
[28] = 5 mg/kg body weight daily oral, day 24
[29] = 5 mg/kg body weight daily oral, day 27
[30] = 5 mg/kg body weight daily oral, day 32

## O=C(O)CC[Se][Se]CCC(=O)O [DSePA, 3,3′-diselenodipropionic acid]
1 mg/Kg body weight daily oral, two independent experiments
  tumor growth inhibition vs control: significantly (P<0.05) inhibited the growth
1 mg/Kg orally daily, end of study period (30 days), n=12, P=0.011
  overall reduction (relative tumor volume vs tumor control): ~3.7 folds
1 mg/Kg orally daily, two independent studies
  mortality: did not show any mortality
[1]
  % S (Survival): 100%
  RTV (Relative Tumor Volume): 1
  T/C (T (test)/C (control)): 1
[2]
  % S (Survival): 100%
  RTV (Relative Tumor Volume): 1.13
  T/C (T (test)/C (control)): 0.80
[3]
  % S (Survival): 100%
  RTV (Relative Tumor Volume): 1.13
  T/C (T (test)/C (control)): 0.79
[4]
  % S (Survival): 100%
  RTV (Relative Tumor Volume): 1.22
  T/C (T (test)/C (control)): 0.48
[5]
  % S (Survival): 100%
  RTV (Relative Tumor Volume): 1.42
  T/C (T (test)/C (control)): 0.37
[6]
  % S (Survival): 100%
  RTV (Relative Tumor Volume): 2.28
  T/C (T (test)/C (control)): 0.38
[7]
  % S (Survival): 100%
  RTV (Relative Tumor Volume): 1.90
  T/C (T (test)/C (control)): 0.33
[8]
  % S (Survival): 100%
  RTV (Relative Tumor Volume): 2.22
  T/C (T (test)/C (control)): 0.24
[9]
  % S (Survival): 100%
  RTV (Relative Tumor Volume): 3.24
  T/C (T (test)/C (control)): 0.32
[10]
  % S (Survival): 100%
  RTV (Relative Tumor Volume): 4.38
  T/C (T (test)/C (control)): 0.36
[11]
  % S (Survival): 100%
  RTV (Relative Tumor Volume): 1
  T/C (T (test)/C (control)): 1
[12]
  % S (Survival): 100%
  RTV (Relative Tumor Volume): 1.09
  T/C (T (test)/C (control)): 0.76
[13]
  % S (Survival): 100%
  RTV (Relative Tumor Volume): 1.01
  T/C (T (test)/C (control)): 0.70
[14]
  % S (Survival): 100%
  RTV (Relative Tumor Volume): 1.42
  T/C (T (test)/C (control)): 0.56
[15]
  % S (Survival): 100%
  RTV (Relative Tumor Volume): 1.66
  T/C (T (test)/C (control)): 0.43
[16]
  % S (Survival): 100%
  RTV (Relative Tumor Volume): 1.79
  T/C (T (test)/C (control)): 0.30
[17]
  % S (Survival): 100%
  RTV (Relative Tumor Volume): 1.54
  T/C (T (test)/C (control)): 0.26
[18]
  % S (Survival): 100%
  RTV (Relative Tumor Volume): 1.23
  T/C (T (test)/C (control)): 0.13
[19]
  % S (Survival): 100%
  RTV (Relative Tumor Volume): 1.74
  T/C (T (test)/C (control)): 0.17
[20]
  % S (Survival): 100%
  RTV (Relative Tumor Volume): 2.21
  T/C (T (test)/C (control)): 0.18
[21]
  % S (Survival): 100%
  RTV (Relative Tumor Volume): 1
  T/C (T (test)/C (control)): 1
[22]
  % S (Survival): 100%
  RTV (Relative Tumor Volume): 1.04
  T/C (T (test)/C (control)): 0.73
[23]
  % S (Survival): 100%
  RTV (Relative Tumor Volume): 1.05
  T/C (T (test)/C (control)): 0.73
[24]
  % S (Survival): 100%
  RTV (Relative Tumor Volume): 1.32
  T/C (T (test)/C (control)): 0.52
[25]
  % S (Survival): 100%
  RTV (Relative Tumor Volume): 1.11
  T/C (T (test)/C (control)): 0.29
[26]
  % S (Survival): 100%
  RTV (Relative Tumor Volume): 1.29
  T/C (T (test)/C (control)): 0.22
[27]
  % S (Survival): 100%
  RTV (Relative Tumor Volume): 1.22
  T/C (T (test)/C (control)): 0.21
[28]
  % S (Survival): 100%
  RTV (Relative Tumor Volume): 1.25
  T/C (T (test)/C (control)): 0.13
[29]
  % S (Survival): 100%
  RTV (Relative Tumor Volume): 1.73
  T/C (T (test)/C (control)): 0.17
[30]
  % S (Survival): 100%
  RTV (Relative Tumor Volume): 2.45
  T/C (T (test)/C (control)): 0.20
Dosage optimization, 1 mg/kg body weight daily oral for 4 weeks
  tumor growth inhibition vs control: significantly (P<0.05) inhibited the growth of K562 tumor from the day 15 onwards
Dosage optimization, 2.5 mg/kg body weight daily oral for 4 weeks
  tumor growth inhibition vs control: significantly (P<0.05) inhibited the growth of K562 tumor from the day 15 onwards
Dosage optimization, 5 mg/kg body weight daily oral for 4 weeks
  tumor growth inhibition vs control: significantly (P<0.05) inhibited the growth of K562 tumor from the day 15 onwards
Dosage optimization, 1, 2.5 and 5 mg/kg daily oral
  mortality: did not show any mortality
Leukemia model, 1 mg/kg body weight daily oral
  T/C achieved: ≤ 0.42
Oral daily
  minimum dosage to achieve optimum efficacy: 1 mg/kg body weight

Reference: patent US11213499B1, “Use of 3,3′-diselenodipropionic acid (DSePA) as an anticancer agent” (Secretary, Department of Atomic Energy, priority 2020, dated 2022)
